According to US6444849B1, “Amide derivatives” (Mitsubishi Chemical Corporation, priority 1997, dated 2002):
Values after ≈ are worked out from the molar mass of the structure shown.

Assays:
[1] = system: Campylobacter jejuni; assay: Measurement of anti-Campylobacter jejuni activity (MIC); format: cell-based; conditions: method similar to Test Example 1
Procedure: Brain heart infusion culture medium containing 10% fetal bovine serum (Difco) (5 ml) was taken in a test tube, and then the medium was inoculated with Helicobacter pylori strain 31A isolated from human (obtained from the Metropolitan Health Institute, Microorganism Department, First Laboratory of Bacteria). Cultivation was carried out under slightly aerobic condition (5% oxygen, 10% carbon dioxide, 85% nitrogen) at 37° C. for 48 hours with shaking.
The culture was then inoculated to brain heart infusion medium containing 10% fetal bovine serum at a ratio of 5%, and added with a test compound dissolved in 10% dimethyl sulfoxide. Cultivation was carried out under slightly aerobic condition at 37° C. for 48 hours with shaking, and then growth of Helicobacter pylori was examined. […] From the results shown in Tables 3 and 4, it can be understood that the compounds of the present invention have potent inhibitory activity against Helicobacter pylori.
According to a aimiar method to that of Test Example 1, inhibitory activity of the compound of the present invention against Campylobacter jejune was determined. As a result, MIC of the compound of Example 31 was 0.008 μg/ml. From the result, it can be understood that the compound of the present invention has potent inhibitory activity against Campylobacter jejumni.

[2] = in vivo; conditions: both sexes, rat, oral, suspended in 0.5% CMC-Na aqueous solution, SD male and female rats, observed for seven days

SMILES | MIC [1] [ng/mL] | LD50 [2] [mg/kg]
CNC(=O)c1cccc(NC(=O)Cc2ccc3ccccc3c2)c1 [Example 31, N-(3-Methylcarbamoylphenyl)-2-naphthylacetnide] | 8 (≈ 0.0251 µM) | –
CNC(=O)c1cccc(NC(=O)Cc2cccc3ccccc23)c1 [Example 30, N-(3-Methylcarbamoylphenyl)-1-naphthylacetamide] | – | ≥ 2000
